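1) Cells in 96-well plates. 2) Compound, 48 h, 5 concentrations. 3) Linear interpolation between surrounding doses. 4) Unreached endpoint = highest concentration. GI50 is the concentration that inhibits growth by half.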 Activity calls are given as the source filed them. Rule as the data show it: active = GI50 up to about 1.1 µM and inactive = higher.
Legend:
Test in all cases: NCI-60 cell line screen, 48 h
A498 = test system: A498
A549 = test system: A549
ACHN = test system: ACHN
COLO 205 = test system: COLO 205
DU-145 = test system: DU-145
HCC 2998 = test system: HCC 2998
HCT-15 = test system: HCT-15
HL-60 = test system: HL-60
M14 = test system: M14
MOLT-4 = test system: MOLT-4
Malme-3M = test system: Malme-3M
NCI-H522 = test system: NCI-H522
OVCAR-4 = test system: OVCAR-4
OVCAR-8 = test system: OVCAR-8
SNB-19 = test system: SNB-19
SR = test system: SR
U-251 = test system: U-251
BT-549 = test system: BT-549
SNB-75 = test system: SNB-75
UACC-257 = test system: UACC-257

| Compound | GI50 (A498) | GI50 (A549) | GI50 (ACHN) | GI50 (COLO 205) | GI50 (DU-145) | GI50 (HCC 2998) | GI50 (HCT-15) | GI50 (HL-60) | GI50 (M14) | GI50 (MOLT-4) | GI50 (Malme-3M) | GI50 (NCI-H522) | GI50 (OVCAR-4) | GI50 (OVCAR-8) | GI50 (SNB-19) | GI50 (SR) | GI50 (U-251) | GI50 (BT-549) | GI50 (SNB-75) | GI50 (UACC-257) |
| --- | --- | --- | --- | --- | --- | --- | --- | --- | --- | --- | --- | --- | --- | --- | --- | --- | --- | --- | --- | --- |
| COC(=O)c1onc(C2OC(C)(C)OC2C(O)COC(c2ccccc2)(c2ccccc2)c2ccccc2)c1C(=O)OC (centres undefined) | > 100 µM (inactive) | > 100 µM (inactive) | > 100 µM (inactive) | > 100 µM (inactive) | > 100 µM (inactive) | > 100 µM (inactive) | > 100 µM | > 100 µM (inactive) | > 100 µM (inactive) | 29.4 µM (inactive) | > 100 µM (inactive) | 65.8 µM (inactive) | > 100 µM (inactive) | > 100 µM (inactive) | > 100 µM (inactive) | 84.3 µM (inactive) | > 100 µM (inactive) |  |  |  |
| CCC1(COC(NC(=O)c2ccccc2)(C(F)(F)F)C(F)(F)F)COC1 | > 100 µM (inactive) | > 100 µM (inactive) | 65.6 µM (inactive) | > 100 µM (inactive) |  | > 100 µM (inactive) | > 100 µM | > 100 µM (inactive) | > 100 µM (inactive) | 52.4 µM (inactive) |  |  |  | > 100 µM (inactive) | > 100 µM (inactive) | > 100 µM (inactive) | > 100 µM (inactive) | > 100 µM (inactive) | > 100 µM (inactive) | > 100 µM (inactive) |
| Cc1ccc(/C=N/NC2=NCCN2)s1 |  | > 100 µM (inactive) | > 100 µM (inactive) | > 100 µM (inactive) | > 100 µM (inactive) | > 100 µM (inactive) | > 100 µM | > 100 µM (inactive) | > 100 µM (inactive) | > 100 µM (inactive) | > 100 µM (inactive) | > 100 µM (inactive) | > 100 µM (inactive) | > 100 µM (inactive) | > 100 µM (inactive) |  | > 100 µM (inactive) | 23.3 µM (inactive) | > 100 µM (inactive) | > 100 µM (inactive) |
| C#CCOCn1ccc(=O)[nH]c1=O | > 100 µM (inactive) | > 100 µM (inactive) | > 100 µM (inactive) | > 100 µM (inactive) | > 100 µM (inactive) | > 100 µM (inactive) | > 100 µM | > 100 µM (inactive) | > 100 µM (inactive) | > 100 µM (inactive) | > 100 µM (inactive) |  | > 100 µM (inactive) | > 100 µM (inactive) | > 100 µM (inactive) | > 100 µM (inactive) | > 100 µM (inactive) |  | > 100 µM (inactive) | > 100 µM (inactive) |
| C#CC(C)(C)Oc1cc(O)c2c(=O)c3ccccc3n(C)c2c1 | > 100 µM (inactive) | > 100 µM (inactive) | 86.1 µM (inactive) | > 100 µM (inactive) |  | 77.4 µM (inactive) | > 100 µM | > 100 µM (inactive) | > 100 µM (inactive) | > 100 µM (inactive) | > 100 µM (inactive) | > 100 µM (inactive) | > 100 µM (inactive) | 35.8 µM (inactive) | > 100 µM (inactive) | 17.3 µM (inactive) | 42.1 µM (inactive) |  | 40.4 µM (inactive) | > 100 µM (inactive) |
| N#Cc1cccc2c1Nc1ccccc1S2 | > 100 µM (inactive) | > 100 µM (inactive) | > 100 µM (inactive) | > 100 µM (inactive) |  | > 100 µM (inactive) | > 100 µM | > 100 µM (inactive) | > 100 µM (inactive) | > 100 µM (inactive) | > 100 µM (inactive) | > 100 µM (inactive) | > 100 µM (inactive) | 79.3 µM (inactive) | 37.8 µM (inactive) | > 100 µM (inactive) | 92.7 µM (inactive) |  | 19.7 µM (inactive) | > 100 µM (inactive) |
| COC(=O)C(=C/c1ccc(OC)cc1)/C(C(=O)O)=C(/C)c1ccccc1 | > 100 µM (inactive) | > 100 µM (inactive) | > 100 µM (inactive) | > 100 µM (inactive) |  | > 100 µM (inactive) | > 100 µM | > 100 µM (inactive) | > 100 µM (inactive) | > 100 µM (inactive) | > 100 µM (inactive) | > 100 µM (inactive) | > 100 µM (inactive) | > 100 µM (inactive) | > 100 µM (inactive) | > 100 µM (inactive) | > 100 µM (inactive) |  | > 100 µM (inactive) | > 100 µM (inactive) |
| Cc1ccc(S(=O)(=O)NC(=O)C#CCOC2CCCCO2)cc1 (centres undefined) | > 100 µM (inactive) | > 100 µM (inactive) | > 100 µM (inactive) |  |  | > 100 µM (inactive) | > 100 µM | > 100 µM (inactive) | > 100 µM (inactive) | > 100 µM (inactive) | > 100 µM (inactive) |  | > 100 µM (inactive) | > 100 µM (inactive) | > 100 µM (inactive) | > 100 µM (inactive) | > 100 µM (inactive) |  | > 100 µM (inactive) | > 100 µM (inactive) |
